{"source": "patent US20040033972A1", "about": "“Treatment of mycobacterium tuberculosis with antisense polynucleotides” (priority 2002, published 2004)", "key": {"M. tuberculosis": {"system": "M. tuberculosis", "details": "cited from earlier work"}, "[1]": {"target": "extracellular glutamine synthetase (Mycobacterium tuberculosis, UniProt P9WN39)", "sequence (P9WN39 2-478 limits assumed)": "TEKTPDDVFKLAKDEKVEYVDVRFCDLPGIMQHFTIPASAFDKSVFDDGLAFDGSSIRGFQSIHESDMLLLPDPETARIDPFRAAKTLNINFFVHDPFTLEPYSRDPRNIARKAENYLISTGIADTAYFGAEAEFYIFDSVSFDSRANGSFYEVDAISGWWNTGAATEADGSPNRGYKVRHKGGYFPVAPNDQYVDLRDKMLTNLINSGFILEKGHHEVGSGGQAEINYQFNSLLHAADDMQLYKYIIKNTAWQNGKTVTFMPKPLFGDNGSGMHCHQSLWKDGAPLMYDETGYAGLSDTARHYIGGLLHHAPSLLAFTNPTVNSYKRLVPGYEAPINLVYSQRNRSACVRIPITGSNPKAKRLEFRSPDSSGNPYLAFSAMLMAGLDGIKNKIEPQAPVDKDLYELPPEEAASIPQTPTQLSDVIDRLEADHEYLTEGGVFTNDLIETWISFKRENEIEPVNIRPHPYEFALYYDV", "details": "20 μM; cited from earlier work"}, "[2]": {"system": "poly-L-glutamate/glutamine cell wall structure", "details": "20 μM; cited from earlier work"}, "M. tuberculosis Erdman [3]": {"system": "M. tuberculosis Erdman", "test": "Growth of M. tuberculosis Erdman broth cultures (colony forming units)", "format": "cell-based"}, "M. tuberculosis Erdman [4]": {"system": "M. tuberculosis Erdman", "test": "microbe, parasite or virus in culture", "details": "Mycobacterium tuberculosis"}, "M. smegmatis 1-2c [5]": {"system": "M. smegmatis 1-2c", "test": "microbe, parasite or virus in culture", "details": "Mycolicibacterium smegmatis, 12C"}, "M. tuberculosis Erdman [6]": {"system": "M. tuberculosis Erdman"}, "M. smegmatis 1-2c [7]": {"system": "M. smegmatis 1-2c"}}, "note": "Like-named read-outs stand apart in the source and are kept apart here. Where a SMILES comes first, the peptide text is derived from it.", "data": [{"smiles": "CS(=N)(=O)CC[C@H](N)C(=O)O", "note": "(stereo partly drawn) [L-methionine-S-sulfoximine]", "values": [{"measurement": "inhibition of bacterial growth", "setting": "M. tuberculosis; 2 μM", "result": "1.5-2 log units"}, {"measurement": "reduction of bacterial growth", "setting": "M. tuberculosis; 20 μM", "result": "≥ 2.5", "unit": "log units"}, {"measurement": "reduction of extracellular glutamine synthetase activity", "setting": "[1]", "result": 80, "unit": "%"}, {"measurement": "reduction of the amount of the poly-L-glutamate/glutamine cell wall structure", "setting": "[2]", "result": 93, "unit": "%"}]}, {"smiles": "NCC[C@H](O)C(=O)N[C@@H]1C[C@H](N)[C@@H](O[C@H]2O[C@H](CN)[C@@H](O)[C@H](O)[C@H]2O)[C@H](O)[C@H]1O[C@H]1O[C@H](CO)[C@@H](O)[C@H](N)[C@H]1O", "note": "[amikacin]", "values": [{"measurement": "antibacterial effect of free amikacin", "setting": "M. tuberculosis Erdman [3]; 1 μM", "result": "bacteriostatic"}, {"measurement": "antibacterial effect of free amikacin", "setting": "M. tuberculosis Erdman [3]; 5.8 μg per ml (10 μM)", "result": "strongly bactericidal"}]}, {"smiles": "CC[C@@H](CO)NCCN[C@@H](CC)CO", "note": "[ethambutol]", "values": [{"measurement": "MIC", "setting": "M. tuberculosis Erdman [4]", "result": "~5", "unit": "µg/mL"}, {"measurement": "MIC", "setting": "M. smegmatis 1-2c [5]", "result": "~0.01", "unit": "µg/mL"}]}, {"smiles": "CC(C)C[C@@H]1NC(=O)[C@@H](Cc2ccccc2)NC(=O)[C@H](CCN)NC(=O)[C@@H](NC(=O)[C@H](CCN)NC(=O)[C@@H](N)[C@@H](C)O)CCNC(=O)[C@H]([C@@H](C)O)NC(=O)[C@H](CCN)NC(=O)[C@H](CCN)NC1=O", "note": "[polymyxin B nonapeptide] (HELM PEPTIDE1{T.[Dab].[Dab].[Dab].[dF].L.[Dab].[Dab].T}$PEPTIDE1,PEPTIDE1,3:R3-9:R2$$$V2.0; N-terminus assumed)", "values": [{"measurement": "MIC", "setting": "M. tuberculosis Erdman [6]", "result": "~5", "unit": "µg/mL"}, {"measurement": "MIC", "setting": "M. smegmatis 1-2c [7]", "result": "~5", "unit": "µg/mL"}]}]}
